# Measurements as given in patent US6770597B2, “Benzohydrazide derivatives as herbicides and desiccant compositions containing them” (Ishihara Sangyo Kaisha, Ltd., priority 2002, dated 2004).
# Legend:
# Assay type in all cases: in vivo
# [1] = test system: barnyardgrass (Echinochloa crus-galli, ECHCG); assay: Greenhouse herbicide screen, post-emerge application, phytotoxicity rating; settings: POST emergent, 14 days after application, scale 0-100
# Excerpt: (§1) A standard greenhouse herbicide activity screening system was used to evaluate the herbicidal efficacy and crop safety of these test compounds. Seven broadleaf weed species including redroot pigweed (Amaranthus retrofiexus, AMARE), velvetleaf (Abutilon theophrasti, ABUTH), sicklepod (Cassia obtusifolia, CASOB), ivyleaf morningglory (Ipomoea hederacea, IPOHE), lambsquarters (Chenopodium album, CHEAL), common ragweed (Ambrosia artemisiifolia L., AMBEL), and cocklebur (Xanthium strumarium, XANST) were used as test species. Four grass weed species including green foxtail (Setaria viridis, SETVI), barnyardgrass (Echinochloa crus-galli, ECHCG), johnsongrass (Sorghum halepense, SORHA), and large crabgrass (Digitaria sanguinalis, DIGSA) were also used. In addition, four crop species, field corn (Zea mays L., var. Dekalb 535, CORN), soybean (Glycine max L., var. Pella 86, SOY), upland rice (Oryza sp., var.Cocodrie, RICE) and wheat (Triticum aestivum L.) were included.
# (§2) All plants were grown in 10 cm square plastic pots which were filled with a sandy loam soil mix. For pre-emerge tests, seeds were planted one day prior to application of the test compounds. For post-emerge tests, seeds were planted 8-21 days prior to the test to allow emergence and good foliage development prior to application of the test substances. At the time of the post-emerge application, plants of all species were usually at the 2-3 leaf stage of development.
# (§3) All test compounds were dissolved in acetone and applied to the test units in a volume of 187 l/ha. Test materials were applied at rates ranging from 15 g ai/ha to 1000 g ai/ha using a track sprayer equipped with a TJ8001E even flow flat fan spray nozzle. Plants were arranged on a shelf so that the top of the canopy (post-emerge) or top of the soil surface (pre-emerge) was 40-45 cm below the nozzle. Pressurized air was used to force the test solution through the nozzle as it was mechanically advanced (via electrically driven chain drive) over the top of all test plants/pots. This application simulates a typical commercial field herbicide application.
# (§4) Pre-emergence tests were top watered immediately after treatment to incorporate the test materials, then routinely top-watered for normal growth. Post-emerge test units were always bottom-watered.
# (§5) At 14 days after application of the test materials, phytotoxicity ratings were recorded. A rating scale of 0-100 was used as previously described in Research Methods in Weed Science, 2nd edition, B. Truelove, Ed., Southern Weed Science Society, Auburn University, Auburn, Ala., 1977. Briefly, “0” corresponds to no damage and “100” corresponds to complete death of all plants in the test unit. This scale was used both to determine efficacy against weed species and damage to crop species. Herbicide activity data for various compounds of this invention, which are shown by compound No. in Tables 1-12, are shown in Tables 13 and 14.
# [2] = test system: cocklebur (Xanthium strumarium, XANST); assay: as above; settings: POST emergent, 14 days after application, scale 0-100
# Excerpt: as §1, §2, §3, §4, §5
# [3] = test system: common ragweed (Ambrosia artemisiifolia L., AMBEL); assay: as above; settings: POST emergent, 14 days after application, scale 0-100
# Excerpt: as §1, §2, §3, §4, §5
# [4] = test system: green foxtail (Setaria viridis, SETVI); assay: as above; settings: POST emergent, 14 days after application, scale 0-100
# Excerpt: as §1, §2, §3, §4, §5
# [5] = test system: ivyleaf morningglory (Ipomoea hederacea, IPOHE); assay: as above; settings: POST emergent, 14 days after application, scale 0-100
# Excerpt: as §1, §2, §3, §4, §5
# [6] = test system: johnsongrass (Sorghum halepense, SORHA); assay: as above; settings: POST emergent, 14 days after application, scale 0-100
# Excerpt: as §1, §2, §3, §4, §5
# [7] = test system: lambsquarters (Chenopodium album, CHEAL); assay: as above; settings: POST emergent, 14 days after application, scale 0-100
# Excerpt: as §1, §2, §3, §4, §5
# [8] = test system: large crabgrass (Digitaria sanguinalis, DIGSA); assay: as above; settings: POST emergent, 14 days after application, scale 0-100
# Excerpt: as §1, §2, §3, §4, §5
# [9] = test system: redroot pigweed (Amaranthus retrofiexus, AMARE); assay: as above; settings: POST emergent, 14 days after application
# Excerpt: as §1, §2, §3, §4, §5
# [10] = test system: sicklepod (Cassia obtusifolia, CASOB); assay: as above; settings: POST emergent, 14 days after application, scale 0-100
# Excerpt: as §1, §2, §3, §4, §5
# [11] = test system: velvetleaf (Abutilon theophrasti, ABUTH); assay: as above; settings: POST emergent, 14 days after application, scale 0-100
# Excerpt: as §1, §2, §3, §4, §5
# [12] = test system: field corn (Zea mays L., var. Dekalb 535, CORN); assay: Greenhouse herbicide screen, post-emerge application, crop damage rating; settings: POST emergent, 14 days after application, scale 0-100
# Excerpt: as §1, §2, §3, §4, §5
# [13] = test system: upland rice (Oryza sp., var.Cocodrie, RICE); assay: as above; settings: POST emergent, 14 days after application, scale 0-100
# Excerpt: as §1, §2, §3, §4, §5
# [14] = test system: barnyardgrass (Echinochloa crus-galli, ECHCG); assay: Greenhouse herbicide screen, pre-emerge application, phytotoxicity rating; settings: PRE emergent, 14 days after application, rating scale 0-100
# Excerpt: as §1, §2, §3, §4, §5
# [15] = test system: cocklebur (Xanthium strumarium, XANST); assay: as above; settings: PRE emergent, 14 days after application, rating scale 0-100
# Excerpt: as §1, §2, §3, §4, §5
# [16] = test system: common ragweed (Ambrosia artemisiifolia L., AMBEL); assay: as above; settings: PRE emergent, 14 days after application, rating scale 0-100
# Excerpt: as §1, §2, §3, §4, §5
# [17] = test system: green foxtail (Setaria viridis, SETVI); assay: as above; settings: PRE emergent, 14 days after application, rating scale 0-100
# Excerpt: as §1, §2, §3, §4, §5
# [18] = test system: ivyleaf morningglory (Ipomoea hederacea, IPOHE); assay: as above; settings: PRE emergent, 14 days after application, rating scale 0-100
# Excerpt: as §1, §2, §3, §4, §5
# [19] = test system: johnsongrass (Sorghum halepense, SORHA); assay: as above; settings: PRE emergent, 14 days after application, rating scale 0-100
# Excerpt: as §1, §2, §3, §4, §5
# [20] = test system: lambsquarters (Chenopodium album, CHEAL); assay: as above; settings: PRE emergent, 14 days after application, rating scale 0-100
# Excerpt: as §1, §2, §3, §4, §5
# [21] = test system: large crabgrass (Digitaria sanguinalis, DIGSA); assay: as above; settings: PRE emergent, 14 days after application, rating scale 0-100
# Excerpt: as §1, §2, §3, §4, §5
# [22] = test system: redroot pigweed (Amaranthus retrofiexus, AMARE); assay: as above; settings: PRE emergent, 14 days after application, rating scale 0-100
# Excerpt: as §1, §2, §3, §4, §5
# [23] = test system: sicklepod (Cassia obtusifolia, CASOB); assay: as above; settings: PRE emergent, 14 days after application, rating scale 0-100
# Excerpt: as §1, §2, §3, §4, §5
# [24] = test system: velvetleaf (Abutilon theophrasti, ABUTH); assay: as above; settings: PRE emergent, 14 days after application, rating scale 0-100
# Excerpt: as §1, §2, §3, §4, §5
# [25] = test system: field corn (Zea mays L., var. Dekalb 535, CORN); assay: Greenhouse herbicide screen, pre-emerge application, crop damage rating; settings: PRE emergent, 14 days after application, rating scale 0-100
# Excerpt: as §1, §2, §3, §4, §5
# [26] = test system: upland rice (Oryza sp., var.Cocodrie, RICE); assay: as above; settings: PRE emergent, 14 days after application, rating scale 0-100
# Excerpt: as §1, §2, §3, §4, §5
compound,measurement,setting,value
Cn1c(C(F)(F)F)cc(=O)n(-c2cc(C(=O)NN3CCCC3)c(Cl)cc2F)c1=O [Compound 1-11],phytotoxicity rating ECHCO,[1]; 63 g ai/ha,70
same,phytotoxicity rating ECHCO,[1]; 250 g ai/ha,100
same,phytotoxicity rating XANST,[2]; 63 g ai/ha,75
same,phytotoxicity rating XANST,[2]; 250 g ai/ha,100
same,phytotoxicity rating AMBEL,[3]; 63 g ai/ha,99
same,phytotoxicity rating AMBEL,[3]; 250 g ai/ha,100
same,phytotoxicity rating SETVI,[4]; 63 g ai/ha,50
same,phytotoxicity rating SETVI,[4]; 250 g ai/ha,55
same,phytotoxicity rating IPOHE,[5]; 63 g ai/ha,100
same,phytotoxicity rating IPOHE,[5]; 250 g ai/ha,100
same,phytotoxicity rating SORHA,[6]; 63 g ai/ha,70
same,phytotoxicity rating SORHA,[6]; 250 g ai/ha,80
same,phytotoxicity rating CHEAL,[7]; 63 g ai/ha,90
same,phytotoxicity rating CHEAL,[7]; 250 g ai/ha,100
same,phytotoxicity rating DIGSA,[8]; 63 g ai/ha,40
same,phytotoxicity rating DIGSA,[8]; 250 g ai/ha,55
same,phytotoxicity rating AMARE,"[9]; 63 g ai/ha, scale 0-100 (0 no damage, 100 complete death)",100
same,phytotoxicity rating AMARE,"[9]; 250 g ai/ha, scale 0-100",100
same,phytotoxicity rating CASOB,[10]; 63 g ai/ha,15
same,phytotoxicity rating CASOB,[10]; 250 g ai/ha,80
same,phytotoxicity rating ABUTH,[11]; 63 g ai/ha,100
same,phytotoxicity rating ABUTH,[11]; 250 g ai/ha,100
same,crop damage rating CORN,[12]; 63 g ai/ha,35
same,crop damage rating CORN,[12]; 250 g ai/ha,95
same,crop damage rating RICE,[13]; 63 g ai/ha,65
same,crop damage rating RICE,[13]; 250 g ai/ha,65
same,phytotoxicity rating ECHCG,[14]; 63 g ai/ha,15
same,phytotoxicity rating ECHCG,[14]; 250 g ai/ha,99
same,phytotoxicity rating XANST,[15]; 63 g ai/ha,0
same,phytotoxicity rating XANST,[15]; 250 g ai/ha,40
same,phytotoxicity rating AMBEL,[16]; 63 g ai/ha,60
same,phytotoxicity rating AMBEL,[16]; 250 g ai/ha,98
same,phytotoxicity rating SETVI,[17]; 63 g ai/ha,50
same,phytotoxicity rating SETVI,[17]; 250 g ai/ha,100
same,phytotoxicity rating IPOHE,[18]; 63 g ai/ha,70
same,phytotoxicity rating IPOHE,[18]; 250 g ai/ha,100
same,phytotoxicity rating SORHA,[19]; 63 g ai/ha,35
same,phytotoxicity rating SORHA,[19]; 250 g ai/ha,99
same,phytotoxicity rating CHEAL,[20]; 63 g ai/ha,100
same,phytotoxicity rating CHEAL,[20]; 250 g ai/ha,100
same,phytotoxicity rating DIGSA,[21]; 63 g ai/ha,50
same,phytotoxicity rating DIGSA,[21]; 250 g ai/ha,100
same,phytotoxicity rating AMARE,[22]; 63 g ai/ha,100
same,phytotoxicity rating AMARE,[22]; 250 g ai/ha,100
same,phytotoxicity rating CASOB,[23]; 63 g ai/ha,70
same,phytotoxicity rating CASOB,[23]; 250 g ai/ha,99
same,phytotoxicity rating ABUTH,[24]; 63 g ai/ha,100
same,phytotoxicity rating ABUTH,[24]; 250 g ai/ha,100
same,crop damage rating CORN,[25]; 63 g ai/ha,0
same,crop damage rating CORN,[25]; 250 g ai/ha,50
same,crop damage rating RICE,[26]; 63 g ai/ha,5
same,crop damage rating RICE,[26]; 250 g ai/ha,55
